Laboratory results: patent US10766940B2, “Brain penetrant amylin receptor based peptides for Alzheimer's disease” (The Governors of the University of Alberta, priority 2016, dated 2020)
Residues, ends and D or L forms follow the SMILES beside them. No end group written: not given here.

Legend:
[1] = biological target: T1, AMY3 receptor (HEK293-AMY3 cells) (Homo sapiens, UniProt O60896+P30988); experiment: Flow cytometry binding and uptake of Cy5 labeled peptides in AMY3-HEK cells; type: cell-based; details: for flow cytometry binding to HEK293-AMY3 cells: 10 μM
T1 construct: expressed in transfected cells; AMY3-293 / AMY3-HEK)
T1 sequence (P30988 25-474): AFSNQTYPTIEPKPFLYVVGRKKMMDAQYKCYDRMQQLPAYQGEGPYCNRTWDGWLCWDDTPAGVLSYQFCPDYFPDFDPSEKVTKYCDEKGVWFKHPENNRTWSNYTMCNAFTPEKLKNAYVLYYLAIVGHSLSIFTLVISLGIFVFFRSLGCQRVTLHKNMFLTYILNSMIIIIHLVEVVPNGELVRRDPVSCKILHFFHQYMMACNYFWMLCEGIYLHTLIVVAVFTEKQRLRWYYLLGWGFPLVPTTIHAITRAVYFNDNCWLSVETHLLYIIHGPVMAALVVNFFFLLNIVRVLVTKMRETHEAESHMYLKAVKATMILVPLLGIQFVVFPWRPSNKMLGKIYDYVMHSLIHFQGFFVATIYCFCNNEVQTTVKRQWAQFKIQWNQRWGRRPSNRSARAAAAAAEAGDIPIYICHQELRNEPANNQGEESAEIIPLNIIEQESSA
T1 sequence (O60896 24-148 partner): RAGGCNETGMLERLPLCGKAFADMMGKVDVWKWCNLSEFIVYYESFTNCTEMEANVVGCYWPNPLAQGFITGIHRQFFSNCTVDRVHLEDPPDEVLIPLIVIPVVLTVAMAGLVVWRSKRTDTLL
Protocol: d) For flow cytometry studies, AMY3-293 cells were used to determine cell binding and uptake and binding of Cy5-AC253, and Cy5-cAC253 peptides. Cell were plated at a density of 1.5×10^5 cells/well and cultured overnight in 12-well plates at 37° C. Cy5 labelled peptides (5 μM) were added and incubated for 1 hour at 37° C. in serum free media. The culture media was discarded, and cell monolayers were washed with PBS containing 2 mM EDTA and 0.5% BSA adjusted to pH 7.4 at 37° C. Cells were washed again with cold buffer and incubated with 0.25% trypsin to remove cell surface-associated fluorophores. Cells were dispersed in FACS solution (10% FBS in PBS) and analyzed using a FACSCanto II flow cytometer (BD Biosciences, USA) selecting a detection window between 720 and 840 nm. Fluorescence histograms and dot plots were generated using the data were processed with FLOWJO software (Tree Star, Inc, USA). At least 10,000 gated events per sample were analyzed. The experiment was repeated with different peptide concentration ranging from 0.5-10 μM, and mean fluorescence intensity of peptides was extrapolated. To further study the cell uptake mechanism, cells were preincubated with cytochalasin D (cytoD, […]) for 30 minutes, and the experiment was repeated as above. To determine the energy dependent mechanism, cell uptake experiment was undertaken at 4° C., and for the competition experiment, cells was pre-incubated with amylin (30 μM) for 30 minutes, and the experiment was repeated.

[2] = test system: N2a mouse neuroblastoma cells; experiment: Aβ1-42 cytotoxicity (MTT) in N2a cells; type: cell-based; details: for block of Aβ1-42 triggered cell death, N2a (MTT): Aβ1-42 20 μM
Protocol: (§1) b) To investigate the antagonistic activity of peptides against Aβ cytotoxicity in vitro, HFNs and N2a cells were used. Cells were seeded to 5000 cells/well in a 96-well plate in MEM-10% FBS and DMEM/OptiMEM-5% FBS for overnight. […] At the end of treatment, 20 μl of 5 mg/ml methylthiazolyldiphenyl-tetrazolium bromide (MTT) was added to each well, and incubated at 37° C. for 3 hours. Medium was removed, 100 μl of MTT solvent (isopropanol with 4 mM HCl) added to each well, and the plates were incubated for 30 minutes at room temperature on a rotating shaker. Plates were analyzed on a microplate reader at a 562-nm wavelength. The Live/Dead assay kit was purchased from Invitrogen and assay followed the production instruction. The assayed cells were fixed with 4% paraformaldehyde in PBS and photo imaged with Axio Zeiss fluorescent microscopy. The dead cells were further counted using ImageJ software.
(§2) f) To investigate the antagonistic activity of peptide fragments against Aβ cytotoxicity in vitro, (human fetal neurons) HFNs, human neuroblastoma, SK-N-SH cells and N2a mouse neuroblastoma cells were used. Cells were seeded to 5000 cells/well in a 96-well plate in MEM-10% FBS and DMEM/OptiMEM-5% FBS for overnight. Cells in culture media were preincubated for 8 h with or without AC253 or fragments R5, R14, R11, and followed by treatment with Aβ1-42 for 24 h. At the end of treatment, 20 μl of 5 mg/ml methylthiazolyldiphenyl-tetrazolium bromide (MTT) was added to each well, and incubated at 37° C. for 3 h. Medium was removed, 100 μl of MTT solvent (isopropanol with 4 mM HCl) added to each well, and the plates were incubated for 30 min at room temperature on a rotating shaker. Plates were analyzed on a microplate reader at a 562-nm wavelength.

[3] = test system: human fetal neurons (HFNs); experiment: Aβ1-42 cytotoxicity (MTT, live/dead) in human fetal neurons; type: cell-based; details: for block of Aβ1-42 triggered cell death, human fetal neuronal cells (MTT): Aβ1-42 20 μM
Protocol: as §1, §2

[4] = test system: human neuroblastoma, SK-N-SH cells; experiment: Aβ1-42 cytotoxicity (MTT) in SK-N-SH cells; type: cell-based; details: Aβ1-42 20 μM
Protocol: as §2

[5] = test system: h-Amylin depression of hippocampal LTP; experiment: Hippocampal slice electrophysiology, long-term potentiation (LTP); design: species or system mouse; details: for reversal of h-Amylin reduction in LTP: 250 nM peptide perfused 5 min prior to 50 nM h-Amylin; for effect of peptide alone on LTP: 250 nM, mouse hippocampal slice
Protocol: Brains were quickly removed from mice following decapitation, placed in a cold artificial cerebral spinal fluid (aCSF) on a vibratome chamber, and transverse sections cut through the hippocampus. The aCSF contained (in millimolar 124 NaCl, 3 KCl, 2.4 CaCl2, 2 MgCl2, 1.25 NaH2PO4, 26 NaHCO3, and 10 D-glucose and was equilibrated with 95% 02 and 5% CO2. Hippocampal slices (400-μm thick) were maintained in aCSF-filled holding chamber at room temperature for at least 1 h and individually transferred to the submerged glass bottom recording chamber, which was constantly perfused with aCSF (2 ml/min) at 30° C. Field excitatory postsynaptic potential (fEPSP) was recorded with a metallic (Pt/Ir) electrode (FHC, Bowdoin, Me.) from the stratum radiatum layer of Cornu ammonis 1 region of the hippocampus (CA1) area, and the Schaffer collateral afferents were stimulated with 100-μs test pulses via a bipolar cluster electrode (FHC). For long-term potentiation (LTP) experiments, the stimulus strength was set to elicit 40-50% of the maximum fEPSP amplitude and test pulses were delivered to Schaffer collaterals once every 30 s. LTP was induced by 3-theta-burst stimulation (3-TBS) protocol (each burst consisted of four pulses at 100 Hz with a 200-ms interburst interval). Before 3-TBS or drug application, the responses were monitored for at least 10 min to ensure a stable baseline of fEPSP.
Soluble oligomeric Aβ1-42, Fragments R5, R10, R11 and h-Amylin were used. Aβ1-42 was purchased from rPeptide, and h-Amylin were purchased from American Peptide. All drugs and chemicals were applied directly to the slice via bath perfusion, which allowed for a complete exchange of the perfusate in less than a minute and a half.

| Compound | mean fluorescence intensity at 4° C. ([1]; 4° C.) | mean fluorescence intensity, binding and uptake ([1]; Cy5 labeled peptide 5 μM, 60 min, 37° C.) | mean fluorescence intensity after pre-incubation with hAmylin ([1]; hAmylin (30 μM) pre-incubation 30 minutes) | mean fluorescence intensity in the presence of cytoD ([1]; preincubation with cytochalasin D) | attenuation of Aβ1-42 induced cell death, N2a ([2]; Aβ1-42 10 μM, peptide 10 μM pre-applied, MTT) | attenuation of Aβ1-42 induced cell death, HFNs ([3]; Aβ1-42 10 μM, peptide 10 μM pre-applied, MTT and live-dead assays) | flow cytometry binding to HEK293-AMY3 cells ([1]; 37° C., 60 min) | block of Aβ1-42 triggered cell death, SK-N-SH (MTT) [4] | reversal of h-Amylin reduction in LTP [5] | effect of peptide alone on LTP [5] | block of Aβ1-42 triggered cell death, N2a (MTT) [2] | block of Aβ1-42 triggered cell death, human fetal neuronal cells (MTT) [3] |
| --- | --- | --- | --- | --- | --- | --- | --- | --- | --- | --- | --- | --- |
| CC(C)C[C@H](NC(=O)[C@H](CCCNC(=N)N)NC(=O)CNC(=O)[C@@H](N)CC(C)C)C(=O)N[C@@H](CO)C(=O)N[C@@H](CCC(N)=O)C(=O)N[C@@H](CCC(=O)O)C(=O)N[C@@H](CC(C)C)C(=O)N[C@@H](Cc1c[nH]cn1)C(=O)N[C@@H](CCCNC(=N)N)C(=O)N[C@@H](CC(C)C)C(=O)N[C@@H](CCC(N)=O)C(=O)N[C@H](C(=O)N[C@@H](Cc1ccc(O)cc1)C(=O)N1CCC[C@H]1C(=O)N[C@@H](CCCNC(=N)N)C(=O)N[C@H](C(=O)N[C@@H](CC(N)=O)C(=O)N[C@H](C(=O)NCC(=O)N[C@@H](CO)C(=O)N[C@@H](CC(N)=O)C(=O)N[C@H](C(=O)N[C@@H](Cc1ccc(O)cc1)C(N)=O)[C@@H](C)O)[C@@H](C)O)[C@@H](C)O)[C@@H](C)O [AC253] | 400±75 | 1200 | 500±100 | 450±50 | attenuated | attenuated |  |  |  |  |  |  |
| CC(C)C[C@H](NC(=O)[C@H](CCC(=O)O)NC(=O)[C@H](CCC(N)=O)NC(=O)[C@@H](N)CO)C(=O)N[C@@H](Cc1c[nH]cn1)C(=O)N[C@@H](CCCNC(=N)N)C(=O)N[C@@H](CC(C)C)C(=O)N[C@@H](CCC(N)=O)C(=O)N[C@H](C(=O)N[C@@H](Cc1ccc(O)cc1)C(=O)N1CCC[C@H]1C(=O)N[C@@H](CCCNC(=N)N)C(N)=O)[C@@H](C)O [R5] (H-SQELHRLQTYPR-NH2; N-terminus assumed) |  |  |  |  |  |  | selective and significant specific binding | block the effect of Aβ1-42 | significantly reversed | did not impair LTP | block the effect of Aβ1-42 | block the effect of Aβ1-42 |
| LGRLSQELHRLQTY (LGRLSQELHRLQTY-NH2) [R14] |  |  |  |  |  |  | selective and significant specific binding | block the effect of Aβ1-42 | significantly reversed | did not impair LTP | block the effect of Aβ1-42 | block the effect of Aβ1-42 |
